Assay results from patent US10800810B2, “Active peptide for inhibiting AMPA receptor and preparation method and use thereof” (CHINA NATIONAL RESEARCH INSTITUTE OF FOOD AND FERMENTATION …, priority 2015, dated 2020).

Tests used:
AMPA receptor [1] = experiment: AMPAR-mediated EPSC and mEPSC in mouse hippocampal slices; type: cell-based
Protocol: (§1) The slices of the hippocampus are transferred to an underwater recording room (Warner instrument). In the recording room, the slices are continuously perfused with ACSF at a speed of 3 ml/min, and whole-cell records of neurons of CA1 region of the hippocampus are performed by those experimenters who are not distinguished between a control group and a treated group. The neurons are identified through morphological recognition using an infrared ray differential interference phase-contrast microscope (BX51W, Olympus, Japan). A borosilicate microtube of 1.5 mm (external diameter)×0.86 mm (internal diameter) is drawn via a flame Brown electrode drawing instrument (P-97, Sutter instrument) using a 4 stage drawing scheme, to form a recording electrode with a resistance between 6-9 megohms. The recording electrode for recording is filled with above-mentioned internal liquid, and a whole-cell recording is proceeded by using above-mentioned external liquid.
(§2) Bipolar polytetrafluoroethylene insulated iridium is used to perform a voltage-clamp recording of excitatory postsynaptic currents (EPSCs), and platinum microelectrode (AM system) is induced at a frequency of 0.0167 Hz. Records are taken by a Multiclamp 700B amplifier, filtered at 10 kHz, sampled at 200 microseconds, and recorded to a personal computer by using pClamp10.2 software, and then analyzed by using Axon Digidata 1440A and pClamp10.2 (Molecular Devices).
(2) after blocking components of NMDA receptor-mediated EPSCs by adding 50 μM of D-APV to ACSF and blocking AMPAR-mediated EPSCs by adding 10 μM of CNQX to ACSF, remaining EPSCs of both them are also recorded. 10 μM of PTX is added in external liquid to isolate mEPSCs. After 10 μM of CNQX and 20 μM of EGAR and also 50 μM of D-APV (an antagonist of NMDA receptor) and 20 μM of EGAR are added to ACSF, mEPSCs are also recorded. By adding 10 μM of CNQX or 50 μM of D-APV to ACSF, NMDAR-mediated or AMPAR-mediated mEPSCs are isolated.
(3) With regard to a NMDAR-mediated current record, 100 μM of NMDA is added into the above-mentioned external liquid; and with regard to an AMPAR-mediated current record, 20 μM of AMPA is added into above-mentioned external liquid.

[2] = tested on: PTZ-induced mouse epilepsy; experiment: Model of PTZ-induced epilepsy seizure; type: in vivo; details: for preclinical period of epilepsy seizure vs PBS treated group: 30 minutes before PTZ 55 mg/kg i.p.
Protocol: In order to determine anticonvulsive effect of EGAR, the degree of epilepsy after EGAR treatment is evaluated for the model of PTZ-induced epilepsy seizure. EGAR is injected into animals earlier 30 minutes than PTZ. The animals are randomly divided into 4 groups, and each group has 10 animals. 4 groups are given EGAR at 0, 1, 10 and 100 mg/kg respectively. All animals are intraperitoneally injected with PTZ at a dose of 55 mg/kg, and this dose can produce clonic seizures in all control animals.
Behaviors of mice are observed for 30 minutes immediately after PTZ injection. […] Mice are placed in a transparent plastic cage, and are observed for 30 minutes. The cage is thoroughly cleaned by using wet/dry cloth and any olfactory clue is removed with 70% ethanol. Animals that show rampage and forelimb clonus or more serious behavior (rampage, clonus and fall down) are considered to be epilepsy in mouse brain edge. Epilepsy seizure is scored according to the following criteria: 0, no response; 1, immobile; 2, taste movement and grasping; 3, tremor; 4, head shaking; 5, rampage and forelimb clonus; 6, rampage, clonus and fall down; 7, death.

NMDA receptor [3] = experiment: Current induced by NMDA, patch clamp; type: cell-based, mouse; details: 100 μM NMDA plus 20 μM EGAR, P>0.05, n=6
Protocol: as §1
(§3) (4) With regard to records of currents induced by NMDA, 100 μM of NMDA is added into above-mentioned external liquid; with regard to records of currents induced by AMPA, 20 μM of AMPA is added into above-mentioned external liquid.

[4] = tested on: neurons of CA1 region of the hippocampus; experiment: Whole-cell recording of EPSC and mEPSC in mouse hippocampal slices; type: cell-based; details: for amplitudes of mEPSCs: P<0.03
Protocol: Hippocampus is taken from a C57BL/6 mouse to do whole-cell recording. The mouse is deep narcotized with 20% urethane before being decollated, then its brain is rapidly removed and immersed in ice-cold ACSF, then the brain is trimmed, and fixed onto a vibration slicer (Leica VT1000A, Germany) to be cut into coronal slices of 350 microns. The slices are incubated with ACSF for at least 1 hour at room temperature before recording.
as §1, §2
Experiments mentioned below are carried out respectively, and the results are represented by an average value±S.E.M. In addition to data analysis of cumulative probability by the means of K-S test, statistical analyses of biological data are all performed by using T-test. All the statistical analyses are done by using SPSS 13.0 software.
(1) EPSCs of slices treated by EGAR are recorded, while EPSCs of slices without EGAR treatment is as contrast, and 10 μM of PTX is added into the external liquid to separate mEPSCs out.

AMPA receptor [5] = experiment: Current induced by AMPA, patch clamp; type: cell-based, mouse
Protocol: as §1, §3

hippocampal neuron = experiment: Epilepsy-like discharge of a hippocampal neuron induced by low magnesium external liquid; type: cell-based, mouse
Protocol: as §1
(5) In an experiment of nominal zero magnesium, magnesium ions are replaced by sodium ions with the same osmotic concentration.

CA1 neuron = experiment: Effect on electrophysiological properties of a neuron; type: cell-based, mouse
Protocol: as §1

NMDA receptor [6] = experiment: NMDAR-mediated EPSC and mEPSC in mouse hippocampal slices; type: cell-based
Protocol: as §1, §2
(2) after blocking components of NMDA receptor-mediated EPSCs by adding 50 μM of D-APV to ACSF and blocking AMPAR-mediated EPSCs by adding 10 μM of CNQX to ACSF, remaining EPSCs of both them are also recorded. 10 μM of PTX is added in external liquid to isolate mEPSCs. After 10 μM of CNQX and 20 μM of EGAR and also 50 μM of D-APV (an antagonist of NMDA receptor) and 20 μM of EGAR are added to ACSF, mEPSCs are also recorded. By adding 10 μM of CNQX or 50 μM of D-APV to ACSF, NMDAR-mediated or AMPAR-mediated mEPSCs are isolated. […]

[7] = background; cited from earlier work
[8] = tested on: pentylenetetrazole (PTZ) model; details: background; cited from earlier work
[9] = behavioral experiment, overall conclusion

EGAR: tetrapeptide with an amino-acid sequence of SEQ ID No.17, contained in the salmon skin active peptide; synthetic EGAR used in tests (Salmo salar)
amplitude of AMPAR-mediated EPSC vs control group (AMPA receptor [1]; 50 μM D-APV and 20 μM EGAR, P<0.01, n=6): significantly lower
cumulative probabilities of AMPAR-mediated mEPSCs amplitudes vs control group (AMPA receptor [1]; K-S test, p<0.05, n=6): reduces
cumulative probabilities of AMPAR-mediated mEPSC event intervals vs control group (AMPA receptor [1]; K-S test, p>0.05, n=6): no difference in frequency
amplitude of AMPAR-mediated mEPSCs vs control group (AMPA receptor [1]; neurons treated by EGAR, P<0.05, t test, n=6): decline
frequencies of AMPAR-mediated mEPSCs vs control group (AMPA receptor [1]; neurons treated with EGAR, P>0.05, t test): do not change
preclinical period of epilepsy seizure vs PBS treated group ([2]; 1 mg/kg EGAR): significant difference
preclinical period of epilepsy seizure vs PBS treated group ([2]; 10 mg/kg EGAR): significant difference
preclinical period of epilepsy seizure vs PBS treated group ([2]; 100 mg/kg EGAR): significant difference
preclinical period of epilepsy seizure [2, 9]: extend the preclinical period
tic symptom of PTZ-induced mouse epilepsy [2, 9]: mitigate tic symptom
peak current of NMDA, difference between groups (NMDA receptor [3]): no significant difference
amplitudes of mEPSCs ([4]; 20 μM EGAR): reduce
amplitudes of mEPSCs ([4]; 50 μM EGAR): reduce
amplitudes of mEPSCs ([4]; 100 μM EGAR): reduce
cumulative probabilities of mEPSC event intervals vs control group ([4]; EGAR treated groups at concentrations): no difference
cumulative probabilities of mEPSC amplitudes vs control group ([4]; EGAR treated groups at concentrations, K-S test p<0.05): reduced
mEPSC frequencies vs control group ([4]; slices treated with EGAR, 10 μM PTX): no change
peak current of AMPA, difference between groups (AMPA receptor [5]; 20 μM AMPA plus 20 μM EGAR, P<0.01, n=6): significant difference
inward current induced by AMPA (AMPA receptor [5]; 20 μM AMPA, 20 μM EGAR, voltage-clamped at -70 mV): reduced
frequency of a peak current caused by low magnesium, difference between groups (hippocampal neuron; 20 μM EGAR, P<0.05, n=6): significant difference
epilepsy-like discharge of a hippocampal neuron induced by low magnesium external liquid (hippocampal neuron; overall conclusion): can inhibit
Action potential half width (CA1 neuron; 20 uM of EGAR treated group): 0.99 ± 0.01 ms
Amplitude (CA1 neuron; 20 uM of EGAR treated group): 87.61 ± 1.18 mV
Frequency (CA1 neuron; 20 uM of EGAR treated group): 13.53 ± 2.42 Hz
Input resistance (CA1 neuron; 20 uM of EGAR treated group): 164.57 ± 9.96 MΩ
Membrane capacitance (CA1 neuron; 20 uM of EGAR treated group): 19.07 ± 0.67 pF
Resting potential (CA1 neuron; 20 uM of EGAR treated group): −65.57 ± 1.23 mV
Threshold potential (CA1 neuron; 20 uM of EGAR treated group): −45.61 ± 0.2 mV
effect on electrophysiological parameters of a CA1 neuron (CA1 neuron; overall conclusion of Table 2): no significant effect
amplitude of NMDAR-mediated EPSC vs control group (NMDA receptor [6]; 10 μM CNQX then 20 μM EGAR, P>0.05, n=6): not changed
frequencies of NMDAR-mediated mEPSCs (NMDA receptor [6]; 100 μM NMDA plus 20 μM EGAR, P>0.05): no significant difference
amplitudes of NMDAR-mediated mEPSCs (NMDA receptor [6]; 100 μM NMDA plus 20 μM EGAR, P>0.05, n=6): no significant difference

NS(=O)(=O)c1cccc2c1c([N+](=O)[O-])cc1nc(O)c(O)nc12 [NBQX, 2,3-dihydroxy-6-nitro-7-sulfamoyl benzo [f] quinoxaline]
solubility [7]: low solubility
effect in pentylenetetrazole (PTZ) model [8]: can play a role
